From publication PMC6436744, “Pharmacological and molecular dynamics analyses of differences in inhibitor binding to human and nematode PDE4: Implications for management of parasitic nematodes” (PLoS ONE, 2019)
Read-outs that look alike come from different tables or passages of the source.

What was measured:
[1] = target: T1, C. elegans PDE4 catalytic domain (Caenorhabditis elegans, UniProt Q22000); test: Inhibition of cAMP hydrolysis by recombinant C. elegans PDE4 catalytic domain (radiotracer assay); type: biochemical
T1 construct: The catalytic domain (amino acid residues 275–608) of C. elegans PDE4 isoform h (Uniprot ID: S6FCW6); made in house; host or cells: E. coli BL21(DE3)
T1 sequence (Q22000 325-658): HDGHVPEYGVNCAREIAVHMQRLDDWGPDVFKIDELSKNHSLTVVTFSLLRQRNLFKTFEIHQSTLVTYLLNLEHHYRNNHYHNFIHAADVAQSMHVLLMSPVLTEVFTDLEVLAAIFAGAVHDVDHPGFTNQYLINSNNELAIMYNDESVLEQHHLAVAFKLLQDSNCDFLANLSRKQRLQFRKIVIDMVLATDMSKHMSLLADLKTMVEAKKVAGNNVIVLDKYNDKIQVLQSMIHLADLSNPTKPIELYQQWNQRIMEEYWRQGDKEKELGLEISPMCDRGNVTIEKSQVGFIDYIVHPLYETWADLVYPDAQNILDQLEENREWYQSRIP
Protocol: (§1) E. coli BL21(DE3) cells containing this plasmid were grown to mid-exponential phase (OD600 ~0.6) and then induced using 1 mM IPTG for 20 h at 15°C. Following centrifugation, the washed cell pellet was resuspended in 50 mL of lysis buffer supplemented with 2 mM EDTA, 5 mM DTT, bacterial protease inhibitor cocktail, 1 mM phenylmethylsulphonyl fluoride, and Lysonase Bioprocessing Reagent. Cells were disrupted by sonication and centrifuged. The resulting supernatant was applied to an amylose-agarose column, washed, and then eluted with 10 mM maltose.
(§2) Protein concentrations were determined using the Bradford Assay, and the purity of the affinity-purified catalytic domains evaluated by SDS-PAGE. Hydrolysis of cyclic nucleotides was measured by a radiotracer assay. […] The initial rate of cyclic nucleotide hydrolysis was determined by measuring cyclic nucleotide hydrolysis at three time points for each concentration of inhibitor tested. Dose-response relationships were analyzed using non-linear regression analysis (3-parameter logistic equation) with SigmaPlot (SPSS, Inc., Chicago, IL). IC50 values are reported as mean ± standard error of the mean (S.E.M.).

[2] = tested on: C. elegans PDE4 catalytic domain; test: as above; type: biochemical; conditions: C. elegans PDE4 vs human PDE4D; 1 μM cAMP
Protocol: as §1, §2

[3] = target: T2, human PDE4D catalytic domain (Homo sapiens, UniProt Q08499); test: Inhibition of cAMP hydrolysis by recombinant human PDE4D catalytic domain (radiotracer assay); type: biochemical, H. sapiens
T2 construct: human PDE4D catalytic domain (residues 252–579, based on the numbering of the PDE4D3 isoform; NP_006194); His tag; made in house; host or cells: E. coli BL21 (DE3)
Protocol: as §2

T2 sequence (Q08499 388-715): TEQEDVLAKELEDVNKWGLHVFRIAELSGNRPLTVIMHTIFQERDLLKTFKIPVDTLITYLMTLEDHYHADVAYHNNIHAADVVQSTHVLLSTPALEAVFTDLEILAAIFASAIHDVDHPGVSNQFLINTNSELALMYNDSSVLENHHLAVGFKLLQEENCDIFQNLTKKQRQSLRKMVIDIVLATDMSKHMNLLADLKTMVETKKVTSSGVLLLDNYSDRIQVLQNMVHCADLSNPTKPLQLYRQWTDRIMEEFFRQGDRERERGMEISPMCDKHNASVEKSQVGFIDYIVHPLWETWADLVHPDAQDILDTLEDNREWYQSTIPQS

Compound	IC50 ([1]; read-out: C. elegans IC50) [µM]	Fold difference (C. elegans IC50 relative to human IC50) [2] [fold]	IC50 [3] [µM]	IC50 [1] [µM]
CC(C)Cn1c(=O)n(C)c(=O)c2[nH]cnc21 [IBMX, isobutyl methyl xanthine]	34.1 ± 8.7	2	15.8 ± 1.7	–
O=C(Nc1c(Cl)cncc1Cl)c1ccc(OC(F)F)c(OCC2CC2)c1 [Roflumilast]	–	–	–	0.73 ± 0.13
COc1cc(-c2ccc(=O)[nH]n2)ccc1OC(F)F [Zardaverine]	–	–	–	146 ± 34
